In the NIST ThermoML archive (doi:10.1016/j.jct.2010.05.002):

Settings: for vapor or sublimation pressure: Transpiration method; for Triple point temperature: Adiabatic calorimetry

Cc1ccc(-c2ccccc2)cc1 [4-methylbiphenyl]
Liquid
Settings | vapor or sublimation pressure [kPa]
323.2 K | 0.00854
325.4 K | 0.01016
327.2 K | 0.01156
329.7 K | 0.01376
332.2 K | 0.01664
334.6 K | 0.01979
336.2 K | 0.02224
338.7 K | 0.02634
341.6 K | 0.03282
344.1 K | 0.03851
346.4 K | 0.04496
349 K | 0.05244
351.2 K | 0.06003
353.2 K | 0.0695

Settings | Triple point temperature [K]
Crystal | 320.33

CC(C)(C)c1ccc(-c2ccccc2)cc1 [4-(1,1-dimethylethyl)-1,1'-biphenyl]
Settings | vapor or sublimation pressure [kPa]
301 K, Crystal | 8.2e-05
303.9 K, Crystal | 0.000119
305.9 K, Crystal | 0.000156
307.9 K, Crystal | 0.000203
310.9 K, Crystal | 0.000285
312.9 K, Crystal | 0.000369
313.8 K, Crystal | 0.000417
315.8 K, Crystal | 0.000507
318.8 K, Crystal | 0.000708
319.8 K, Crystal | 0.000814
320.2 K, Crystal | 0.000843
321.7 K, Crystal | 0.001012
322.7 K, Crystal | 0.001146
323.2 K, Crystal | 0.001207
325.2 K, Crystal | 0.0015
326.2 K, Crystal | 0.00168
327.4 K, Liquid | 0.00187
331.5 K, Liquid | 0.00263
334.4 K, Liquid | 0.00326
336.6 K, Liquid | 0.00389
338 K, Liquid | 0.00428
338.8 K, Liquid | 0.00465
340.5 K, Liquid | 0.00532
341.6 K, Liquid | 0.00563
343.7 K, Liquid | 0.00682
343.8 K, Liquid | 0.00673
346.6 K, Liquid | 0.00813
347.2 K, Liquid | 0.00852
347.6 K, Liquid | 0.00864
348.8 K, Liquid | 0.00962
349.8 K, Liquid | 0.0103
350.4 K, Liquid | 0.0106
352.8 K, Liquid | 0.01272
354.8 K, Liquid | 0.01441
357.4 K, Liquid | 0.01733
360.2 K, Liquid | 0.02099
362.6 K, Liquid | 0.025
364.9 K, Liquid | 0.02919
367.4 K, Liquid | 0.03524
370 K, Liquid | 0.04103
371.2 K, Liquid | 0.04325
372.6 K, Liquid | 0.04776
373.9 K, Liquid | 0.05134
375.3 K, Liquid | 0.05672
376.7 K, Liquid | 0.05953
378 K, Liquid | 0.06614

Settings | Triple point temperature [K]
Crystal | 324.76
